The source of these data is ChEMBL document CHEMBL1157916, “Cytotoxicity against KB and NCI-H187 cell lines of modified flavonoids from Kaempferia parviflora” (Bioorg Med Chem Lett, 2010).

Assay [1] has as its system KB. Kind of assay: Cytotoxicity against human KB cells after 3 days by Resazurin Microplate Assay. The assay is classed as functional, cell-based. Conditions: 72 h; call rule not given here. On the technique in general: Alamar Blue is a resazurin reagent that responds to reducing activity.
The subject of assay [2] is NCI-H187. Kind of assay: Cytotoxicity against human NCI-H187 cells after 5 days by Resazurin Microplate Assay. The assay is classed as functional, cell-based. To be noted: NCI-H187, 120 h.
For assay [3], the system named is Vero. Kind of assay: Cytotoxicity against african green monkey Vero cells by green fluorescent protein based assay. The assay is classed as cell-based. To be noted: Chlorocebus sabaeus.
For assay [4], the system named is NCI-H187. Kind of assay: Selectivity ratio of IC50 of ellipticine to IC50 of compound for human NCI-H187 cells. The format is functional.
For assay [5], the system named is Vero. The assay can be described thus: Selectivity ratio of IC50 for african green monkey Vero cells to IC50 for human NCI-H187 cells.
Assay [6] relates to KB. The assay can be described thus: Cytotoxicity against human KB cells at >100 uM after 3 days by Resazurin Microplate Assay. The assay is classed as functional, cell-based.
Assay [7] has as its system Vero. The assay can be described thus: Cytotoxicity against african green monkey Vero cells at >100 uM by green fluorescent protein based assay. The format is cell-based, Chlorocebus sabaeus.
In assay [8] the test system is NCI-H187. Kind of assay: Cytotoxicity against human NCI-H187 cells at >100 uM after 5 days by Resazurin Microplate Assay. The assay is classed as functional, cell-based.
Assay [9] concerns Vero. The assay can be described thus: Selectivity ratio of IC50 for african green monkey Vero cells to IC50 for human KB cells.

pIC50: −log10 of the molar value.

A word on the pIC50: it is the IC50 on a negative log10 scale, so that one unit is a factor of ten. Take `COc1cc(O)c2c(c1)OC(c1ccccc1)C(OC)/C2=N\O` (stereo unspecified): the pIC50 was 4.62 in [1], 6.64 in assay [2] and 4.39 in assay [3]. Further, the results for the “fold change (FC)” value in [4] and in assay [5] were 12 and 180, respectively.

Turning to `COc1cc(OC)c2c(c1)OC(c1ccccc1)C/C2=N\O` (stereo unspecified), the IC50 result in assay [6] is reported as “Not Active”. Moreover, in assay [2], the pIC50 is 4.27.

`COc1ccc(C2C/C(=N\O)c3c(OC)cc(OC)cc3O2)cc1` (stereo unspecified): the pIC50 is 4.37 in assay [1] and 5.39 in assay [2]. For the same compound, in [7], the IC50 result is “Non-toxic”.

In the case of `COc1ccc(C2CC(O)c3c(OC)cc(OC)cc3O2)cc1` (stereo unspecified), the IC50 entry in assay [6] and in assay [8] was “Not Active” each time.

In the case of `COc1cc(O)c2c(=O)c(OC)c(-c3ccccc3)oc2c1`, the IC50 result in assay [6] was “Not Active”; in [8] it was “Not Active”; in assay [7], “Non-toxic”.

`COc1cc(O)c2c(c1)OC(c1ccccc1)C/C2=N/O` (stereo unspecified): the pIC50 in [1] was 6.59; in assay [2] it was 7.85; in [3], 5.57. For the same compound, the “fold change (FC)” value is 200 in [4], 190 in assay [5] and 10 in assay [9].

With `O/N=C1\CC(c2ccccc2)Oc2cc(O)cc(O)c21` (stereo unspecified), the figures for the pIC50 in assay [1] and in [2] were 4.07 and 5.63, respectively. In assay [7], the IC50 entry is “Non-toxic”.

As for `COc1cc(OC)c2c(c1)OC(c1ccccc1)CC2O` (stereo unspecified), the pIC50 in [1] was 4.04. In addition, the IC50 result in assay [8] is recorded as “Not Active”.

`COc1cc(O)c(C(=O)CCc2ccccc2)c(O)c1`: in assay [6], the IC50 result is reported as “Not Active”. In [2], the pIC50 was 5.01.

Consider `COc1cc(O)c(C(=O)CCc2ccccc2)c(OC)c1`, for which the IC50 result in [6] and in [8] was “Not Active” throughout.

Take `COc1ccc(CCC(=O)c2c(O)cc(OC)cc2OC)cc1`: the IC50 entry in [6] and in assay [8] was “Not Active” in each case.

Turning to `COc1cc(O)c2c(c1)O[C@H](c1ccccc1)[C@H](OC)C2=O` (mixture of isomers), the figures for the pIC50 in assay [1] and in assay [2] were 4.52 and 4.01, respectively.

For the compound `COc1cc(O)c2c(c1)O[C@H](c1ccccc1)[C@H](OC)[C@@H]2O` (racemic), the figures for the pIC50 in assay [1] and in assay [2] were 4.25 and 4.02, respectively.

On to `COc1ccc(C2CC(=O)c3c(OC)cc(OC)cc3O2)cc1` (racemic), for which the pIC50 was 4.10 in assay [1] and 4.60 in [2].

For the compound `COc1cc(OC)c2c(=O)cc(-c3ccccc3)oc2c1` [CHRYSIN DIMETHYL ETHER], the results for the IC50 result in assay [6], in assay [8] and in [7] were “Not Active”, “Not Active” and “Non-toxic”, respectively.

Regarding `COc1cc(OC)c2c(c1)OC(c1ccccc1)CC2=O` (stereo unspecified) [DIMETHYLPINOCEMBRIN], the pIC50 is 4.40 in assay [1] and 4.48 in assay [2].

For the compound `Cc1c2ccncc2c(C)c2c1[nH]c1ccccc12` [ELLIPTECINE], the negative-log IC50 (pIC50) is 5.75 in assay [1], 5.56 in [2] and 5.64 in [3].

Consider `O=C1C[C@@H](c2ccccc2)Oc2cc(O)cc(O)c21` [PINOCEMBRIN], for which the pIC50 in assay [1] is 4.00; in assay [2], 4.02.

With `COc1cc(O)c2c(c1)O[C@H](c1ccccc1)CC2=O` [PINOSTROBIN], the IC50 result in assay [6] and in assay [8] was “Not Active” throughout.

As to `COc1cc(O)c2c(=O)cc(-c3ccccc3)oc2c1` [TECHTOCHRYSIN], the IC50 result in assay [6] is recorded as “Not Active”; in assay [8], “Not Active”; in assay [7], “Non-toxic”.

Turning to `COc1ccc(-c2cc(=O)c3c(OC)cc(OC)cc3o2)cc1` [TRIMETHYLAPIGENIN], the IC50 entry is listed as “Not Active” in [6], “Not Active” in assay [8] and “Non-toxic” in [7].
